Biological target: Human CYP17 (Homo sapiens (Human), UniProt P05093)
Experiment: CYP17 Total SPA Assay
Assay type: biochemical
Details: microsomes from HEK2 cells stably transfected with CYP17; 3H-Pregnenolone 1 uM; NADPH 2 mM; 45 minutes at room temperature
Method: CYP17 Total SPA Assay The assays were performed in U-bottom 384-well optiplates. […] The reaction was initiated by the combination of the microsomes and substrates in wells containing compound. The reaction was incubated at room temperature for 45 minutes and terminated by adding 7.5 μl of 0.2N HCl to each well. […] The plate was sealed and incubated overnight with shaking at 4° C. The beads were allowed to settle in the plate for 1 hour and the plate read on a TOPCOUNT® (Perkin-Elmer) plate reader. […] The final concentration of reagents in the assays are NADPH, 2 mM; 3H-Pregnenolone, 1 uM; microsomes, 1.25 ug/ml; […] Dose response curves were generated to determine the concentration required inhibiting 50% of enzyme activity (IC50). Compounds were dissolved at 10 mM in dimethylsulfoxide (DMSO) and evaluated at eleven concentrations, each in duplicate. IC50 values were derived by non-linear regression analysis. Table 22 below lists the IC50 values for the following Examples of this invention measured in the Total CYP17 SPA Assay hereinabove.

Sequence of Human CYP17 (P05093 whole entry): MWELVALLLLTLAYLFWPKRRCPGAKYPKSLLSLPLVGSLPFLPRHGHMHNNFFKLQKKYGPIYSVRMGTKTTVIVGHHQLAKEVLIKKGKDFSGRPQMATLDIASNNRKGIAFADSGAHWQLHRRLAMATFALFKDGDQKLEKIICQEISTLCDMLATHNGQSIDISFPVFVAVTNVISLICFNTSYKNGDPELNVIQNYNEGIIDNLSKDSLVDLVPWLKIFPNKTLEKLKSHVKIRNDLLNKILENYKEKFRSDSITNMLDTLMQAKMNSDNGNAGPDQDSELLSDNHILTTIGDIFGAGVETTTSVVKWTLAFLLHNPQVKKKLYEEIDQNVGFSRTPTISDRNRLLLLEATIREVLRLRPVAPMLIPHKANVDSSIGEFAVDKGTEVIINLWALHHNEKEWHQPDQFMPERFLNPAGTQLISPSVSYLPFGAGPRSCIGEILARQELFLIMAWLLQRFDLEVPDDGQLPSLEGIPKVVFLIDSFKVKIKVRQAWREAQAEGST

Compound | IC50
Cc1cc(NS(C)(=O)=O)ccc1-c1cnccc1-c1ccccc1 [Example 12, N-(3-methyl-4-(4-phenyl-3-pyridinyl)phenyl)methanesulfonamide] | 104 nM
Cc1ccncc1-c1ccc(NS(C)(=O)=O)cc1OCC(F)F [Example 23, N-(3-(2,2-difluoroethoxy)-4-(4-methyl-3-pyridinyl)phenyl)methane sulfonamide] | 32 nM
Cc1ccncc1-c1ccc(NS(C)(=O)=O)cc1OCC(F)(F)F [Example 24, N-(4-(4-methyl-3-pyridinyl)-3-(2,2,2-trifluoroethoxy)phenyl)methane sulfonamide] | 42 nM
COc1cc(NS(C)(=O)=O)ccc1-c1cncc2ccccc12 [Example 142, N-(4-(isoquinolin-4-yl)-3-methoxyphenyl)methanesulfonamide] | 6.6 nM
COc1cc(NS(=O)(=O)c2ccccc2)ccc1-c1cncc2ccccc12 [Example 143, N-(4-(isoquinolin-4-yl)-3-methoxyphenyl)benzenesulfonamide] | 2.9 nM
COc1cc(NS(=O)(=O)c2cccc3ccccc23)ccc1-c1cncc2ccccc12 [Example 144, N-(4-(isoquinolin-4-yl)-3-methoxyphenyl)naphthalene-1-sulfonamide] | 11 nM
COc1ccc(S(=O)(=O)Nc2ccc(-c3cncc4ccccc34)c(OC)c2)cc1 [Example 147, N-(4-(isoquinolin-4-yl)-3-methoxyphenyl)-4-methoxybenzenesulfonamide] | 2.7 nM
COc1cc(NS(=O)(=O)c2cccc3cccnc23)ccc1-c1cncc2ccccc12 [Example 154, N-(4-(isoquinolin-4-yl)-3-methoxyphenyl)quinoline-8-sulfonamide] | 27 nM
CCS(=O)(=O)Nc1ccc(-c2cncc3ccccc23)c(OC)c1 [Example 156, N-(4-(isoquinolin-4-yl)-3-methoxyphenyl)ethanesulfonamide] | 8.1 nM
COc1cc(NS(=O)(=O)c2cn(C)c(C)n2)ccc1-c1cncc2ccccc12 [Example 158, N-(4-(isoquinolin-4-yl)-3-methoxyphenyl)-1,2-dimethyl-1H-imidazole-4-sulfonamide] | 118 nM
COc1cc(NS(=O)(=O)C2CC2)ccc1-c1cncc2ccccc12 [Example 159, N-(4-(isoquinolin-4-yl)-3-methoxyphenyl)cyclopropanesulfonamide] | 6.2 nM
COc1cc(NS(=O)(=O)c2ccccn2)ccc1-c1cncc2ccccc12 [Example 160, N-(4-(isoquinolin-4-yl)-3-methoxyphenyl)pyridine-2-sulfonamide] | 6 nM
COc1cc(NS(C)(=O)=O)ccc1-c1cncnc1C [Example 161, N-(3-methoxy-4-(4-methylpyrimidin-5-yl)phenyl)methanesulfonamide] | 112 nM
COc1cc(NS(=O)(=O)C2CC2)ccc1-c1cncnc1C [Example 162, N-(3-methoxy-4-(4-methylpyrimidin-5-yl)phenyl)cyclopropanesulfonamide] | 169 nM
CCCS(=O)(=O)Nc1ccc(-c2cncnc2C)c(OC)c1 [Example 163, N-(3-methoxy-4-(4-methylpyrimidin-5-yl)phenyl)propane-1-sulfonamide] | 134 nM
COc1cc(NS(=O)(=O)CC(C)C)ccc1-c1cncnc1C [Example 164] | 100 nM
COc1cc(NS(=O)(=O)c2ccccc2)ccc1-c1cncnc1C [Example 165, N-(3-methoxy-4-(4-methylpyrimidin-5-yl)phenyl)benzenesulfonamide] | 5.4 nM
COc1cc(NS(=O)(=O)c2cccnc2)ccc1-c1cncnc1C [Example 166, N-(3-methoxy-4-(4-methylpyrimidin-5-yl)phenyl)pyridine-3-sulfonamide] | 131 nM
COc1cc(NS(=O)(=O)CC(F)(F)F)ccc1-c1cncnc1C [Example 167, 2,2,2-trifluoro-N-(3-methoxy-4-(4-methylpyrimidin-5-yl)phenyl)ethanesulfonamide] | 158 nM
COc1cc(NS(=O)(=O)Cc2ccccc2)ccc1-c1cncnc1C [Example 168, N-(3-methoxy-4-(4-methylpyrimidin-5-yl)phenyl)-1-phenylmethanesulfonamide] | 9.6 nM
COc1cc(NS(=O)(=O)CCc2ccccc2)ccc1-c1cncnc1C [Example 169, N-(3-methoxy-4-(4-methylpyrimidin-5-yl)phenyl)-2-phenylethanesulfonamide] | 119 nM

The remaining lines, values ahead:

IC50 | Compound
56 nM | COc1ccc(S(=O)(=O)Nc2ccc(-c3cncnc3C)c(OC)c2)cc1 [Example 170, 4-methoxy-N-(3-methoxy-4-(4-methylpyrimidin-5-yl)phenyl)benzenesulfonamide]
117 nM | COc1cc(NS(=O)(=O)c2ccc(Cl)cc2)ccc1-c1cncnc1C [Example 172, 4-chloro-N-(3-methoxy-4-(4-methylpyrimidin-5-yl)phenyl)benzenesulfonamide]
3.4 nM | COc1cc(NS(=O)(=O)Cc2ccc(Cl)cc2)ccc1-c1cncnc1C [Example 173, 1-(4-chlorophenyl)-N-(3-methoxy-4-(4-methylpyrimidin-5-yl)phenyl)methanesulfonamide]
59 nM | COc1cc(NS(=O)(=O)c2ccc3ccccc3c2)ccc1-c1cncnc1C [Example 175, N-(3-methoxy-4-(4-methylpyrimidin-5-yl)phenyl)naphthalene-2-sulfonamide]
118 nM | COc1cc(NS(=O)(=O)c2cccc3cccnc23)ccc1-c1cncnc1C [Example 176, N-(3-methoxy-4-(4-methylpyrimidin-5-yl)phenyl)quinoline-8-sulfonamide]
7.7 nM | Cc1ccncc1-c1ccc(NS(=O)(=O)C2CC2)cc1OCC(F)(F)F [Example 184]
52 nM | Cc1cc(NS(C)(=O)=O)ccc1-c1cnccc1Cl [Example 195, N-(4-(4-chloro-3-pyridinyl)-3-methylphenyl)methanesulfonamide]
1.4 nM | Cc1cc(NS(C)(=O)=O)ccc1-c1cnccc1OCC(F)(F)F [Example 198, N-(3-methyl-4-(4-(2,2,2-trifluoroethoxy)-3-pyridinyl)phenyl) methane sulfonamide]
49 nM | CCc1ncncc1-c1ccc(NS(C)(=O)=O)cc1OC [Example 218, N-(4-(4-ethylpyrimidin-5-yl)-3-methoxyphenyl) methanesulfonamide]
103 nM | COc1cc(NS(C)(=O)=O)ccc1-c1cncnc1C(C)C [Example 220, N-(4-(4-isopropylpyrimidin-5-yl)-3-methoxyphenyl) methanesulfonamide]
100 nM | COc1cc(NS(C)(=O)=O)ccc1-c1cncnc1C1CCCCC1 [Example 221, N-(4-(4-cyclohexylpyrimidin-5-yl)-3-methoxyphenyl)methanesulfonamide]
2.1 nM | COc1cc(NS(C)(=O)=O)ccc1-c1cnccc1C1CC1 [Example 225, N-(4-(4-cyclopropylpyridin-3-yl)-3-methoxyphenyl)methanesulfonamide]
3.2 nM | CS(=O)(=O)Nc1ccc(-c2cncc3ccccc23)c(OC(F)(F)F)c1 [Example 228, N-(4-(isoquinolin-4-yl)-3-(trifluoromethoxy)phenyl)methanesulfonamide]
59 nM | CS(=O)(=O)Nc1ccc(-c2cncc3ccccc23)c(OCC(F)(F)F)c1 [Example 232, N-(4-(isoquinolin-4-yl)-3-(2,2,2-trifluoroethoxy)phenyl)methanesulfonamide]
56 nM | COc1ccncc1-c1ccc(NS(C)(=O)=O)cc1OCC(F)(F)F [Example 233, N-(4-(4-methoxypyridin-3-yl)-3-(2,2,2-trifluoroethoxy)phenyl)methanesulfonamide]
40 nM | CS(=O)(=O)Nc1ccc(-c2cncc3ccccc23)c(OCCF)c1 [Example 234, N-(3-(2-fluoroethoxy)-4-(isoquinolin-4-yl)phenyl)methanesulfonamide]
174 nM | CS(=O)(=O)Nc1ccc(-c2cnccc2Cl)c(OCCF)c1 [Example 236, N-(4-(4-chloropyridin-3-yl)-3-(2-fluoroethoxy)phenyl)methanesulfonamide]
51 nM | CS(=O)(=O)Nc1ccc(-c2cncc3ncccc23)c(OCCF)c1 [Example 239, N-(3-(2-fluoroethoxy)-4-(1,7-naphthyridin-5-yl)phenyl)methanesulfonamide]
26 nM | Cc1ccncc1-c1ccc(NS(C)(=O)=O)cc1C(F)(F)F [Example 240, N-(4-(4-methylpyridin-3-yl)-3-(trifluoromethyl)phenyl)methanesulfonamide]
48 nM | CS(=O)(=O)Nc1ccc(-c2cncc3ccccc23)c(C(F)(F)F)c1 [Example 241, N-(4-(isoquinolin-4-yl)-3-(trifluoromethyl)phenyl)methanesulfonamide]
39 nM | CS(=O)(=O)Nc1ccc(-c2cnccc2C2CC2)c(C(F)(F)F)c1 [Example 243, N-(4-(4-cyclopropylpyridin-3-yl)-3-(trifluoromethyl)phenyl)methanesulfonamide]
57 nM | COc1cc(NS(C)(=O)=O)ccc1-c1cncnc1OC [Example 245]
120 nM | COc1cc(NS(C)(=O)=O)ccc1-c1cncn2cccc12 [Example 250, N-(3-methoxy-4-(pyrrolo[1,2-c]pyrimidin-4-yl)phenyl)methanesulfonamide]
